Experimental data taken from article PMC9250534, “Synthesis and direct assay of large macrocycle diversities by combinatorial late-stage modification at picomole scale” (Nature Communications, 2022).
Numbered stars: 1 amine (or outer) side, 2 acyl side, 3 side chain; on linkers, the order of the positions; unused ones are H or OH. Bridge positions count the residues as written; N and C are the ends. Square brackets hold non-standard residues; d marks the D form. Peptide text beside a SMILES is read from it. * marks the point of attachment. Isoorotoyl = O=C(c1c[nH]c(=O)[nH]c1=O)*; 2Thenoyl(5-Cl) = O=C(c1ccc(Cl)s1)*; Cysteamide = C(CS[*:3])N[*:1]; 3Amb = NCc1cccc(C(=O)O)c1; Isovaleryl = CC(C)CC(=O)*; Orn = NCCC[CH](N)C(=O)O; dDap = NC[C@@H](N)C(=O)O; 2Furoyl = O=C(c1ccco1)*; βAla = NCCC(=O)O; Mpa = O=C(O)CCS

Target: T1, thrombin (Homo sapiens, UniProt P00734)
T1 construct: consists of two polypeptide chains of 36 (light chain) and 259 amino acid
Assay: Thrombin inhibition screen of crude macrocycle reactions (residual thrombin activity, fluorogenic substrate Z-Gly-Gly-Arg-AMC)
Assay type: biochemical
Settings: 10 µM macrocycle concentration; for percent residual thrombin activity: crude reactions, Library 1a-l, scaffold AA1-AA2-AA3 combined with 1-16 or '-'; for % thrombin activity, Original screen / % thrombin activity, Repeat screen: macrocycles containing acid 14, crude reaction; for % thrombin activity, Repeat screen: replicate reaction and screen
Summary of the method: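 Each crude macrocycle (10 μM) was preincubated 10 min at room temperature with thrombin (2 nM final) in Tris-Cl pH 7.4 containing NaCl, MgCl2, CaCl2, 0.1% BSA, 0.01% Triton X-100 and 0.6% DMSO. Z-Gly-Gly-Arg-AMC (50 μM final) was then added. Inhibition came from fluorescence slopes relative to DMSO-only controls.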

CC(C)CC(=O)NCCCC[C@@H]1NC(=O)[C@@H](Cc2c[nH]c3ccccc23)NC(=O)[C@H]2CCCN(C2)C(=O)CCSSCCNC1=O [B4-w-D1/8]
percent residual thrombin activity: 116.689%

CC[C@H](C)[C@@H]1NC(=O)[C@H](CCCCNC(=O)COc2ccccc2)NC(=O)CCSSCCNC(=O)C2(CC2)CNC1=O [D1-I-B6/13]
percent residual thrombin activity: 106.199%

CC[C@H](C)[C@@H]1NC(=O)[C@H](CCCNC(=O)c2c[nH]c(=O)[nH]c2=O)NC(=O)c2cccc(c2)CNC(=O)CCSSCCNC1=O [B5-D2-I/11]
percent residual thrombin activity: 108.374%

Cc1nnsc1C(=O)NCCCC[C@@H]1NC(=O)CCSSCCNC(=O)c2ccc(cc2)CNC(=O)[C@H](CO)NC1=O [D1-S-B3/15]
percent residual thrombin activity: 113.1%

CC(C)C[C@@H]1NC(=O)c2cccc(c2)CNC(=O)C2(CCN(C(=O)c3ccc(Cl)s3)CC2)NC(=O)CCSSCCNC1=O [X D6 B5 L]
% thrombin activity, Original screen: 105.2%
% thrombin activity, Repeat screen: 108.9%

NCCCC[C@@H]1NC(=O)C2(CC2)CNC(=O)CCSSCCNC(=O)[C@H](CCC(N)=O)NC1=O [B6-D1-Q/-]
percent residual thrombin activity: 103.82%

CC(C)CC(=O)NCCCC[C@@H]1NC(=O)[C@@H](C)NC(=O)CCSSCCNC(=O)c2cccc(c2)CNC1=O [a-D1-B5/8] ([Mpa][dA]K(Isovaleryl)[3Amb]-Cysteamide; disulfide 1-C)
percent residual thrombin activity: 99.075%

CC[C@H](C)[C@@H]1NC(=O)[C@H](CCCNC(=O)c2ccc(Cl)s2)NC(=O)CCSSCCNC(=O)CCNC1=O [D2-I-B2/14]
percent residual thrombin activity: 94.0704%

O=C(NCCC[C@@H]1NC(=O)[C@H](CO)NC(=O)[C@@H]2CCCN2C(=O)CCSSCCNC1=O)c1ccc(Cl)s1 [B1-S-D2/14] ([Mpa]PS[Orn](2Thenoyl(5-Cl))-Cysteamide; disulfide 1-C)
percent residual thrombin activity: 96.3876%

O=C1CCSSCCNC(=O)C(Cc2c[nH]c3ccccc23)NC(=O)C(CNC(=O)c2ccc(Cl)s2)NC(=O)C2(CC2)CN1 (centres unmarked) [X B6 D3 w]
% thrombin activity, Original screen: 92.5%
% thrombin activity, Repeat screen: 95.8%

CC(C)CC1NC(=O)C2CC(NC(=O)c3ccc(Cl)s3)CN2C(=O)CCSSCCNC(=O)C2CCCN(C2)C1=O (centres unmarked) [X D5 L B4]
% thrombin activity, Original screen: 94.2%
% thrombin activity, Repeat screen: 89.4%

O=C1CCNC(=O)[C@@H](Cc2c[nH]c3ccccc23)NC(=O)[C@@H](CNC(=O)c2ccc(Cl)s2)NC(=O)CCSSCCN1 [X D4 w B2]
% thrombin activity, Original screen: 90.8%
% thrombin activity, Repeat screen: 96.7%

O=C1CCNC(=O)[C@@H](NC(=O)c2ccc(Cl)s2)CSSCCNC(=O)[C@@H](CO)NC(=O)CN1 [C B2 G s]
% thrombin activity, Original screen: 112.4%
% thrombin activity, Repeat screen: 112.3%

CC(C)[C@@H]1NC(=O)[C@H](CCCNC(=O)c2ccccc2)NC(=O)C2(CC2)CNC(=O)CCSSCCNC1=O [B6-D2-V/1]
percent residual thrombin activity: 108.209%

NC(=O)CC[C@@H]1NC(=O)CCSSCCNC(=O)[C@H](CCCCNC(=O)Cc2c[nH]c3ccccc23)NC(=O)C2(CC2)CNC1=O [Q-B6-D1/12]
percent residual thrombin activity: 103.639%

O=C1CCSSCCNC(=O)[C@@H](Cc2ccccc2)NC(=O)c2cccc(c2)CNC(=O)C2(CCN(C(=O)c3ccc(Cl)s3)CC2)N1 [X D6 B5 f]
% thrombin activity, Original screen: 92.3%
% thrombin activity, Repeat screen: 95.8%

O=C1CCSSCCNC(=O)[C@@H]2CCCN2C(=O)[C@@H](Cc2c[nH]c3ccccc23)NC(=O)[C@@H](CNC(=O)c2ccc(Cl)s2)N1 [X D4 w B1] ([Mpa][dDap](2Thenoyl(5-Cl))[dW]P-Cysteamide; disulfide 1-C)
% thrombin activity, Original screen: 68.9%
% thrombin activity, Repeat screen: 70.9%

COc1ccc(C(=O)NCCC[C@@H]2NC(=O)CCSSCCNC(=O)CCNC(=O)[C@H](CO)NC2=O)cn1 [D2-S-B2/10]
percent residual thrombin activity: 107.459%

O=C1CCSSCCNC(=O)[C@H](CCCNC(=O)c2ccccc2)NC(=O)c2ccc(cc2)CNC(=O)[C@H](CO)N1 [S-B3-D2/1]
percent residual thrombin activity: 105.629%

CC[C@H](C)[C@@H]1NC(=O)[C@H](CCCNC(=O)c2snnc2C)NC(=O)c2cccc(c2)CNC(=O)CCSSCCNC1=O [B5-D2-I/15]
percent residual thrombin activity: 106.982%

Cc1nnsc1C(=O)NCCCC[C@@H]1NC(=O)CCSSCCNC(=O)C2(CC2)CNC(=O)[C@H](C(C)C)NC1=O [D1-V-B6/15]
percent residual thrombin activity: 112.935%

Cc1nnsc1C(=O)NCCC[C@@H]1NC(=O)CCSSCCNC(=O)[C@H](Cc2c[nH]cn2)NC(=O)c2cccc(c2)CNC1=O [D2-B5-H/15]
percent residual thrombin activity: 105.304%

O=C(NCCCC[C@@H]1NC(=O)[C@@H](Cc2c[nH]c3ccccc23)NC(=O)[C@H]2CCCN(C2)C(=O)CCSSCCNC1=O)c1c[nH]c(=O)cn1 [B4-w-D1/9]
percent residual thrombin activity: 111.618%

NC(=O)CC[C@@H]1NC(=O)[C@H](CCCCNC(=O)c2c[nH]c(=O)[nH]c2=O)NC(=O)CCSSCCNC(=O)[C@@H]2CCCN2C1=O [D1-Q-B1/11] ([Mpa]K(Isoorotoyl)QP-Cysteamide; disulfide 1-C)
percent residual thrombin activity: 109.119%

O=C1CCSSCCNC(=O)C2CCCN2C(=O)C(CCCNC(=O)c2ccc(Cl)s2)NC(=O)C(Cc2c[nH]cn2)N1 (centres unmarked) [X H D2 B1] ([Mpa]H[Orn](2Thenoyl(5-Cl))P-Cysteamide; disulfide 1-C; configuration not given here)
% thrombin activity, Original screen: 95.8%
% thrombin activity, Repeat screen: 95.8%

CC(C)[C@@H]1NC(=O)CCSSCCNC(=O)[C@@H]2CCCN2C(=O)[C@H](CCCCNC(=O)c2ccco2)NC1=O [v-D1-B1/16] ([Mpa]VK(2Furoyl)P-Cysteamide; disulfide 1-C)
percent residual thrombin activity: 102.421%

O=C1CCSSCCNC(=O)[C@H](Cc2ccc(O)cc2)NC(=O)[C@H](CCCNC(=O)Cc2c[nH]c3ccccc23)NC(=O)C2(CC2)CN1 [B6-D2-Y/12]
percent residual thrombin activity: 103.867%

CC(C)C[C@@H]1NC(=O)CCNC(=O)CCSSCCNC(=O)[C@H](CCCN)NC1=O [B2-L-D2/-] ([Mpa][βAla]L[Orn]-Cysteamide; disulfide 1-C)
percent residual thrombin activity: 113.32%

O=C1CCSSCCNC(=O)[C@H](Cc2c[nH]c3ccccc23)NC(=O)c2ccc(cc2)CNC(=O)[C@H](CNC(=O)c2ccc(Cl)s2)N1 [X D3 B3 W]
% thrombin activity, Original screen: 68.7%
% thrombin activity, Repeat screen: 73.3%

CC[C@H](C)[C@@H]1NC(=O)CCSSCCNC(=O)[C@H](CCCCNC(=O)c2c[nH]c(=O)[nH]c2=O)NC(=O)c2cccc(c2)CNC1=O [I-B5-D1/11]
percent residual thrombin activity: 106.327%

NCCCC[C@@H]1NC(=O)[C@H](Cc2ccc(O)cc2)NC(=O)C2(CC2)CNC(=O)CCSSCCNC1=O [B6-Y-D1/-]
percent residual thrombin activity: 104.679%

O=C1CCSSCCNC(=O)C2(CC2)CNC(=O)[C@H](Cc2c[nH]cn2)NC(=O)[C@H](CCCCNC(=O)c2ccc(Cl)s2)N1 [X D1 H B6]
% thrombin activity, Original screen: 105.8%
% thrombin activity, Repeat screen: 107.1%

O=C1CCSSCCNC(=O)[C@@H]2CCCN2C(=O)[C@H](Cc2ccc(O)cc2)NC(=O)[C@H](CCCNC(=O)c2ccco2)N1 [D2-Y-B1/16] ([Mpa][Orn](2Furoyl)YP-Cysteamide; disulfide 1-C)
percent residual thrombin activity: 105.138%

O=C(Cc1c[nH]c2ccccc12)NCCCCC1NC(=O)CCSSCCNC(=O)C(Cc2ccc(O)cc2)NC(=O)C2CCCN(C2)C1=O (centres unmarked) [D1-B4-y/12]
percent residual thrombin activity: 103.012%
